Experimental findings from US9725445B2, “Cycloalkyl nitrile pyrazolo pyridones as Janus kinase inhibitors” (Merck Sharp & Dohme Corp., priority 2013, dated 2017) are described below.

Experiment [1] addresses JAK2 (Homo sapiens (Human), UniProt O60674). As to the kind of experiment: Jak biochemical HTRF assay, JAK2. Particulars: HTRF biochemical assay, recombinant GST-tagged catalytic domain; read-out: JAK2 IC50.
In experiment [2] the target is JAK1 (Homo sapiens (Human), UniProt P23458). As to the kind of experiment: Jak biochemical HTRF assay, JAK1. Particulars: HTRF biochemical assay, recombinant GST-tagged catalytic domain; read-out: JAK1 IC50.
JAK1, sequence (P23458 875-1153): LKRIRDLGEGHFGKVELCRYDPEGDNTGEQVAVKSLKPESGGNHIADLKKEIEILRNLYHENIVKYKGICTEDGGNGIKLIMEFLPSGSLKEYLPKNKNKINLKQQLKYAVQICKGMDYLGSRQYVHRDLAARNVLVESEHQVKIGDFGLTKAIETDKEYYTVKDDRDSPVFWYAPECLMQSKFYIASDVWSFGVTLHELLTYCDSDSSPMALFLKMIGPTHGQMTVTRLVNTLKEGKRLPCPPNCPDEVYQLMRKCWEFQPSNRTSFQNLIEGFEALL

Structures are written as SMILES.

JAK2, sequence (O60674 849-1124): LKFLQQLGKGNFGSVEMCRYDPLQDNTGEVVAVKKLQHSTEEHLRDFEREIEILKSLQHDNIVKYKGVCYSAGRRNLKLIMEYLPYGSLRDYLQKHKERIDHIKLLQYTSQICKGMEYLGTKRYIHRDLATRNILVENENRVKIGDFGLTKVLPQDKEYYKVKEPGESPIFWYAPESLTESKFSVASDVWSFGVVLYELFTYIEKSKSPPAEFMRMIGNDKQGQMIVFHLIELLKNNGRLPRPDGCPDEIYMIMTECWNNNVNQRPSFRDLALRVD

In the case of `Cc1nc2ccc(Nc3nn([C@H]4CCCC[C@@H]4C#N)c4cc[nH]c(=O)c34)cc2s1` [Example 15-10, (1S,2S)-2-{3-[(2-methyl-1,3-benzothiazol-6-yl)amino]-4-oxo-4,5-dihydro-1H-pyrazolo[4,3-c]pyridin-1-yl}cyclohexanecarbonitrile], the IC50 in experiment [1] came to 1.6 nM; in experiment [2], 0.092 nM.

Regarding `CC1(c2ccc(Nc3nn([C@H]4CCCC[C@@H]4C#N)c4cc[nH]c(=O)c34)cc2)COC1` [Example 15-13, (1S,2S)-2-(3-{[4-(3-methyloxetan-3-yl)phenyl]amino}-4-oxo-4,5-dihydro-1H-pyrazolo[4,3-c]pyridin-1-yl)cyclohexanecarbonitrile], the IC50 in experiment [1] came out at 0.72 nM; in experiment [2], 0.22 nM.

As to `N#CCCn1cc(-c2ccc(Nc3nn([C@H]4CCCC[C@@H]4C#N)c4cc[nH]c(=O)c34)cc2)cn1` [Example 15-14, (1S,2S)-2-[3-({4-[1-(2-cyanoethyl)-1H-pyrazol-4-yl]phenyl}amino)-4-oxo-4,5-dihydro-1H-pyrazolo[4,3-c]pyridin-1-yl]cyclohexanecarbonitrile], the IC50 in experiment [1] came to 1.1 nM; in experiment [2], 0.065 nM.

Consider `CCOC(=O)c1cnn(-c2ccc(Nc3nn([C@H]4CCCC[C@@H]4C#N)c4cc[nH]c(=O)c34)cc2C)c1` [Example 15-15, ethyl 1-[4-({1-[(1S,2S)-2-cyanocyclohexyl]-4-oxo-4,5-dihydro-1H-pyrazolo[4,3-c]pyridin-3-yl}amino)-2-methylphenyl]-1H-pyrazole-4-carboxylate], for which the 50% inhibitory concentration (IC50) in experiment [1] came out at 5.9 nM; in experiment [2], 1.7 nM.

For `CC(C)OC(=O)c1ccc2cc(Nc3nn([C@H]4CCCC[C@@H]4C#N)c4cc[nH]c(=O)c34)ccc2n1` [Example 15-16, isopropyl 6-((1-((1S,2S)-2-cyanocyclohexyl)-4-oxo-4,5-dihydro-1H-pyrazolo[4,3-c]pyridin-3-yl)amino)quinoline-2-carboxylate], the IC50 came out at 3.8 nM in experiment [1] and 0.26 nM in experiment [2].

With `N#C[C@H]1CCCC[C@@H]1n1nc(Nc2ccc(-c3noc(=O)[nH]3)cc2)c2c(=O)[nH]ccc21` [Example 15-17, (1S,2S)-2-(4-oxo-3-{[4-(5-oxo-4,5-dihydro-1,2,4-oxadiazol-3-yl)phenyl]amino}-4,5-dihydro-1H-pyrazolo[4,3-c]pyridin-1-yl)cyclohexanecarbonitrile], the IC50 in experiment [1] worked out at 2.9 nM; in experiment [2] it was 0.17 nM.

As to `Cc1cc(Nc2nn([C@H]3CCCC[C@@H]3C#N)c3cc[nH]c(=O)c23)ccc1-c1cnn(CCC#N)c1` [Example 15-18, (1S,2S)-2-[3-({4-[1-(2-cyanoethyl)-1H-pyrazol-4-yl]-3-methylphenyl}amino)-4-oxo-4,5-dihydro-1H-pyrazolo[4,3-c]pyridin-1-yl]cyclohexanecarbonitrile], the IC50 in experiment [1] was found to be 2.3 nM; in experiment [2], 0.17 nM.

Turning to `N#C[C@H]1CCCC[C@@H]1n1nc(Nc2ccc(C3(C(F)(F)F)CC3)cc2)c2c(=O)[nH]ccc21` [Example 15-19], the IC50 in experiment [1] came to 8.1 nM; in experiment [2] it was 1 nM.

For `CC(C)(C)N1Cc2cc(Nc3nn([C@H]4CCCC[C@@H]4C#N)c4cc[nH]c(=O)c34)ccc2C1=O` [Example 15-20, (1S,2S)-2-{3-[(2-tert-butyl-1-oxo-2,3-dihydro-1H-isoindol-5-yl)amino]-4-oxo-4,5-dihydro-1H-pyrazolo[4,3-c]pyridin-1-yl}cyclohexanecarbonitrile], the IC50 in experiment [1] stood at 0.48 nM; in experiment [2] it was 0.069 nM.

In the case of `N#C[C@H]1CCCC[C@@H]1n1nc(Nc2ccc(C3CCNCC3)cc2)c2c(=O)[nH]ccc21` [Example 15-25, (1S,2S)-2-{4-oxo-3-[(4-piperidin-4-ylphenyl)amino]-4,5-dihydro-1H-pyrazolo[4,3-c]pyridin-1-yl}cyclohexanecarbonitrile], the IC50 stood at 0.98 nM in experiment [1] and 0.48 nM in experiment [2].
